US11911610B2, “Methods for restoring sensitivity to TTFields in TTFields-resistant cancer cells with PTGER3 inhibitors” (Novocure GmbH, priority 2019, dated 2024)

What was measured:
U87R resistant cells = test: Live cell count of TTFields-resistant GBM cells treated with drug with or without TTFields for 3 days; format: cell-based, human; settings: for sensitivity to TTFields: inhibitor + TTFields 200 kHz compared with TTFields alone, FIG. 14
Description: (§1) For the experiments summarized in FIG. 13, resistant human GBM cells were treated with either vehicle control or aspirin and with or without TTFields for 3 days. Drug was replenished daily. The numbers of live cells were quantified using a cell counter at the end point.
PTGER3 inhibitors can restore sensitivity to TTFields.

[1] = tested on: human GBM cell lines (LN827); test: Resistant cell line generation experiment with PTGER3 inhibitor (FIG. 16); format: cell-based; settings: L798,106 + TTFields, 5 cycles of 7 days
Excerpt: For the experiments summarized in FIG. 2, TTFields-resistant human GBM cell lines were generated by seeding LN827 cells at a density of 10,000/ml and treated with TTFields for in repeated 1-week cycles at a frequency of 200 kHz. For each cycle, cells were counted on day 2, day 4 and day 7. At the end of each cycle, the cells were re-seeded at the same density as on day 0, harvested and processed for RNAseq and cryopreservation for future analysis. Resistant cells emerged after at least four weeks of TTFields treatment.
The resistant cell line generation experiment using the original human GBM cell lines from FIG. 2 was repeated with two more groups that included a PTGER3 inhibitor (L798,106 and L798,106+TTFields) (FIG. 16). […] Cells were seeded and counted at the same cell density and time points. Each cycle lasts for 7 days within total of 5 cycles.

[2] = tested on: TTFields-resistant GBM cells (U87R, L428R, and LN827R); test: Reduction of resistance to TTFields in TTFields-resistant GBM cells (FIG. 13); format: cell-based, human; settings: Aspirin+TTFields compared with Vehicle+TTFields, 3 days
Description: as §1

LN428R resistant cells = test: Live cell count of TTFields-resistant GBM cells treated with drug with or without TTFields for 3 days; format: cell-based, human; settings: aspirin + TTFields, drug replenished daily, reduced from 85 k/dish, TTFields alone 70 k/dish
Description: as §1

LN827R cells = test: as above; format: cell-based, human; settings: aspirin + TTFields, drug replenished daily, reduced from around 125 k/dish, TTFields alone increased count slightly
Description: as §1

SMILES	live cell count (U87R resistant cells; DG041 50 nM + TTFields 200 kHz, reduced from around 160 k/dish, TTFields alone 100 k/dish)	sensitivity to TTFields (U87R resistant cells)	development of resistance to TTFields [1]	live cell count (U87R resistant cells; L798,106 0.5 μM + TTFields 200 kHz, reduced from around 200 k/dish, TTFields alone 125 k/dish)	resistance to TTFields [2]	live cell count (LN428R resistant cells)	live cell count (LN827R cells)	live cell count (U87R resistant cells; aspirin + TTFields, drug replenished daily, reduced from 150 k/dish, TTFields alone 125 k/dish)
Cc1cn(Cc2ccc(Cl)cc2Cl)c2c(/C=C/C(=O)NS(=O)(=O)c3cc(Cl)c(Cl)s3)cc(F)cc12 [DG041]	around 40 k/dish	restores sensitivity to TTFields	–	–	–	–	–	–
COc1ccc(Br)cc1S(=O)(=O)NC(=O)/C=C/c1ccccc1Cc1ccc2ccccc2c1 [L798,106]	–	restores sensitivity to TTFields	prevented the development of resistance to TTFields	25 k/dish	–	–	–	–
CC(=O)Oc1ccccc1C(=O)O [aspirin]	–	–	–	–	significantly reduces resistance to TTFields	40 k/dish	90 k/dish	100 k/dish
